Measured values: patent US20080021107A1, “USE OF AMINO ACIDS FOR TREATMENT OF VARIOUS CONDITIONS” (UNIVERSITY OF ROCHESTER, priority 2002, published 2008)

Tests used:
[1] = tested on: hot flashes in post-menopausal women; assay: Oral administration to patients experiencing hot flashes as symptoms of postmenopausal hormone variation; conditions: for side effects: human, in vivo, po
Source text: Administration of L-Norleucine to Patients Experiencing Hot Flashes as Symptoms of Postmenopausal Hormone Variation […]

[2] = high-dose oral L-methionine; van der Griend et al. 2002; cited from earlier work
palmar hyperhidrosis = conditions: L-methionine 1 g bid orally
[3] = tested on: hot flashes as a result of the post-partum state; conditions: L-methionine 1 g bid orally
[4] = Backonja et al. 1998; Rowbotham et al. 1998; cited from earlier work

Compound	improvement in hot flash frequency ([1]; Patient No. 1, about 10 hot flashes per day, L-methionine 1 gram tid orally, after three weeks, benefit persisted for 3 months of therapy) [%]	change in symptoms ([1]; Patient No. 1, L-methionine 500 mg three times daily for two weeks)	improvement in hot flash frequency ([1]; Patient No. 2, about 15 hot flashes per day, L-methionine 1 g tid orally, after three weeks, benefit persisted for 5 months of therapy) [%]	improvement in nighttime hot flash frequency ([1]; Patient No. 3, about 7 hot flashes per day, L-methionine 500 mg tid orally, after three weeks) [%]	improvement in both nighttime and daytime hot flash severity ([1]; Patient No. 3, L-methionine 500 mg tid orally, after three weeks) [%]	side effects [1]	increase in serum homocysteine levels [2] [fold]	side effects (palmar hyperhidrosis)	reduction in the subjective severity of palmar hyperhidrosis (palmar hyperhidrosis; person, after 3 weeks) [%]	side effects [3]	improvement in hot flash frequency ([3]; person, 3 severe nighttime and 2 moderate daytime hot flashes per day, after three weeks) [%]	reduction in hot flashes ([1]; Example 4 Patient No. 1, 6 hot flashes/day at baseline, oral L-norleucine 1.5 grams 2x/day, starting 10 days after initiating, maintained for 3.5 months) [%]	reduction in hot flashes ([1]; Example 4 Patient No. 2, 8 hot flashes/day at baseline, oral L-norleucine 1 gram 2x/day, starting 4 days after initiating, maintained for 1.5 months) [%]	tolerability ([1]; Example 1 Patient No. 1, gabapentin therapy for several days)	patient withdrawal rate due to side effects (most often sleepiness and dizziness) [4]
CSCC[C@H](N)C(=O)O [L-methionine]	90	without noticing an appreciable change	90	66	50	No side effects	10	No side effects	50	No side effects	100				
CCCC[C@H](N)C(=O)O [L-norleucine]						No side effects						70	87		
NCC1(CC(=O)O)CCCCC1 [gabapentin, Gabapentin, reference compound]														unable to tolerate the drug due to severe dizziness	approximately 13%
